Target: T1, 5-hydroxytryptamine receptor 1A (Homo sapiens, UniProt P08908)
T1 sequence (P08908 whole entry): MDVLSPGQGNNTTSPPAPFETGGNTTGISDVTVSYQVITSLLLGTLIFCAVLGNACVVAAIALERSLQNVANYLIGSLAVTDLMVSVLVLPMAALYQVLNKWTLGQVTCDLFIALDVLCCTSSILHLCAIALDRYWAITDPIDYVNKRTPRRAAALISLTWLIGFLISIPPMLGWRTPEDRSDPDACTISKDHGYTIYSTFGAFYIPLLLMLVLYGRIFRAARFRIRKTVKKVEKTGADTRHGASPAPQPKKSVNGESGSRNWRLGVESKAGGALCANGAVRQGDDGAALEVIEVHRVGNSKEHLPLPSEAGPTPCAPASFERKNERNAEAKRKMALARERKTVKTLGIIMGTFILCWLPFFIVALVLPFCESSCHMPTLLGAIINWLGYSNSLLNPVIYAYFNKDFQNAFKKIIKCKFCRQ

Ki | SMILES
13.9 nM | Cc1nc2c(C)cccn2c(=O)c1CCN1CCC(c2noc3cc(F)ccc23)CC1 [CAS_129029-23-8]
> 10000 nM | COc1ccc(CN(CCN(C)C)c2ccccn2)cc1
> 10000 nM | CCN1CCCC1CNC(=O)c1cc(S(N)(=O)=O)ccc1OC (configuration not stated) [N-[(1-ethylpyrrolidin-2-yl)methyl]-2-methoxy-5-sulfamoylbenzamide]
25.8 nM | OC(CNCC(O)C1CCc2cc(F)ccc2O1)C1CCc2cc(F)ccc2O1 (configuration not stated) [CAS_99200-09-6]
7360 nM | Cn1cc(C(F)(F)F)nc1-c1ccc(OCC(O)CNCCOc2ccc(O)c(C(N)=O)c2)cc1 (configuration not stated)

SMILES | Ki
O=c1ccc2[nH]cc(C3=CCNCC3)c2[nH]1 [CAS_127792-75-0] | 3750 nM
CN1C[C@@H](NS(=O)(=O)N(C)C)C[C@@H]2c3cccc4c3c(cn4C)C[C@H]21 [MESULERGINE] | 197 nM

Source: BindingDB's records for doi:10.1016/0006-2952(93)90073-6 (Janssen Research Foundation, 1993)
